Laboratory results published in article PMC5698418 (Nature Communications, 2017).
Where a name gives a salt, the structure may show the parent alone. Read-outs that look alike come from different tables or passages of the source.

Tested on: BDNF-induced nuclear Arc expression in primary cortical neurons
Assay: Chemogenomic screen: high-content image-based assay of BDNF-induced nuclear Arc expression (96-well)
Type: cell-based, mouse
Procedure: To increase the throughput of our pharmacological screening for modulators of Arc, the above mentioned assay was adapted to cultures of mouse primary cortical neurons in 96-well plates.
All 319 compounds were initially tested at a final concentration of 16.7 µM with three biological replicates.
Screening of compounds in the chemogenomic library was carried out using DIV13 primary forebrain cortical neurons cultured on poly-L-lysine/laminin-coated 96-well plates (Ibidi USA, Madison, WI). Cells were seeded at a density of 30,000 cells per well and treated with the compound library and BDNF according to the experimental design presented in Fig. 3a. After experimental treatment, cells were processed for Arc and acetyl-H3K9 immunocytochemistry according to the protocol described above. Both antigens (Arc and acetyl-H3K9) were imaged using an IN Cell Analyzer 6000 imaging system and a ×40 objective. […] High-throughput quantification of nuclear Arc immunofluorescence signal was performed in a similar fashion than the low-throughput procedure described above but with the exception that acetyl-H3K9 was used as a nuclear mask to guide the automated quantification of nuclear Arc immunofluorescence signal.

[1] = BDNF-induced nuclear Arc expression, primary cortical neurons, chemogenomic screen
[2] = nuclear Arc-positive cells relative to DMSO control (BDNF), negative = decrease
[3] = chemogenomic (SMART) screen, BDNF-induced nuclear Arc expression, primary cortical neurons, BDNF control 19.5
[4] = nuclear Arc-positive cells relative to DMSO + BDNF control, negative values = decrease

Compound	Percentage of cell with nuclear Arc immunostaining above 2σ threshold [1] [%]	Percentage of cell with nuclear Arc immunostaining above 2σ threshold [3] [%]	Fold-change — Normalized to DMSO control (BDNF) [4] [fold]	further results
CN(C)CCCN1c2ccccc2Sc2ccc(Cl)cc21 [Chlorpromazine]	0.0			
O=C1Cc2cc(CCN3CCN(c4nsc5ccccc45)CC3)c(Cl)cc2N1 [Ziprasidone]	3.3			
COc1ccc(CNC(=O)Nc2ncc([N+](=O)[O-])s2)cc1 [AR-A014418]	4.9			Fold-change — Normalized to DMSO control (BDNF) [2]: -4.0 fold
O=C(O)[C@H]1O[C@@H](Oc2cc3oc(-c4ccccc4)cc(=O)c3c(O)c2O)[C@H](O)[C@@H](O)[C@@H]1O [Baicalin]		34.6	1.8	
Cc1[nH]c2ccc(Cl)cc2c1C1=CCNCC1 [EMD-386,088]			1.2	Percentage of cell with nuclear Arc immunostaining above 2σ threshold: 22.7%
CC(=O)[C@H]1CC[C@H]2[C@@H]3CC[C@H]4C[C@](C)(O)CC[C@]4(C)[C@H]3CC[C@]12C [Ganaxolone]			1.2	Percentage of cell with nuclear Arc immunostaining above 2σ threshold: 22.6%
CSc1ccc2c(c1)N(CCC1CCCCN1C)c1ccccc1S2 (centres unmarked) [Thioridazine]	0.0			
O=C1NCCN1CCN1CCC(c2cn(-c3ccc(F)cc3)c3ccc(Cl)cc23)CC1 [Sertindole]	0.18			
CCOC(=O)Nc1ccc(NCc2ccc(F)cc2)cc1N [Retigabine]				Fold-change — Normalized to DMSO control (BDNF): 1.7 fold; Percentage of cell with nuclear Arc immunostaining above 2σ threshold: 32.9%
C[C@]12COC(=O)C[C@@H]1CC[C@@H]1[C@@H]2CC[C@@]2(C)[C@H]1CC[C@]2(C)O [Oxandrolone]			1.7	Percentage of cell with nuclear Arc immunostaining above 2σ threshold: 33.5%
CCOc1ccc(Cc2nccc3cc(OCC)c(OCC)cc23)cc1OCC [Ethaverine]	1.3			
COc1cc2c(cc1OC)C1CC(=O)C(CC(C)C)CN1CC2 (centres unmarked) [Tetrabenazine]		24.9	1.3	
O=c1c(O)c(-c2ccc(O)cc2)oc2cc(O)cc(O)c12 [Kaempferol]	4.0			
COCCCC/C(=N\OCCN)c1ccc(C(F)(F)F)cc1 [Fluvoxamine]	8.5			
OCCN1CCN(CCCN2c3ccccc3Sc3ccc(Cl)cc32)CC1 [Perphenazine]	1.0			
COc1ccc(C(CN(C)C)C2(O)CCCCC2)cc1 (centres unmarked) [Venlafaxine]				Percentage of cell with nuclear Arc immunostaining above 2σ threshold: 12.1%
O=c1[nH]c2cc(C(F)(F)F)c(N3CCOCC3)cc2n(CP(=O)(O)O)c1=O [Fanapanel]	8.8			
C#CCN(C)[C@H](C)Cc1ccccc1 [Selegiline]			1.5	Percentage of cell with nuclear Arc immunostaining above 2σ threshold: 29.8%
CNCCC(Oc1ccccc1OC)c1ccccc1 (centres unmarked) [Nisoxetine hydrochloride]				Percentage of cell with nuclear Arc immunostaining above 2σ threshold: 19.1%

Compound	Percentage of cell with nuclear Arc immunostaining above 2σ threshold [1] [%]	Percentage of cell with nuclear Arc immunostaining above 2σ threshold [3] [%]	Fold-change — Normalized to DMSO control (BDNF) [4] [fold]	further results
COc1ccc(CN(CCN(C)C)c2ccccn2)cc1 [Pyrilamine maleate]		25.2	1.3	
CNC(C)C1CCC(N)C(OC2C(N)CC(N)C(OC3OCC(C)(O)C(NC)C3O)C2O)O1 (centres unmarked) [Gentamicin]	10.3			
CNCCCN1c2ccccc2CCc2ccccc21 [Desipramine]	11.3			
Nc1c2c(nc3ccccc13)CCCC2 [Tacrine]	8.3			
CCOc1ccccc1OC(c1ccccc1)C1CNCCO1 (centres unmarked) [Reboxetine]				Percentage of cell with nuclear Arc immunostaining above 2σ threshold: 8.6%
COc1ccc(/C=C/c2cc(OC)cc(=O)o2)cc1 [Yangonin]		29.7	1.5	
CC[C@]12CCCN3CCc4c(n(c5ccccc45)[C@@](O)(C(=O)OC)C1)[C@@H]32 [Vincamine]		19.0		
COc1ccc(C(=O)N2CCCC2=O)cc1 [Aniracetam]	8.2			
CN1CCCC(CC2c3ccccc3Sc3ccccc32)C1 (centres unmarked) [Metixene]	6.7			
O=C(c1ccc(F)cc1)C1CCN(CCn2c(=O)[nH]c3ccccc3c2=O)CC1 [Ketanserin]		20.4	1.0	
C#CCN(C)CCCOc1ccc(Cl)cc1Cl [Clorgyline]	7.4			Fold-change — Normalized to DMSO control (BDNF) [2]: -2.6 fold
COc1cc(N)c(Cl)cc1C(=O)NC1CCN(Cc2ccccc2)CC1 [Clebopride]		25.8	1.3	
CN1C(=O)CCS(=O)(=O)C1c1ccc(Cl)cc1 (centres unmarked) [Chlormezanone]			1.3	Percentage of cell with nuclear Arc immunostaining above 2σ threshold: 25.9%
OC(CNc1ccccc1)Cn1c2ccc(Br)cc2c2cc(Br)ccc21 (centres unmarked) [P7C3]				Percentage of cell with nuclear Arc immunostaining above 2σ threshold: 1.7%; Fold-change — Normalized to DMSO control (BDNF) [2]: -11.2 fold
CC(C)S(=O)(=O)N[C@H]1CCOC[C@@H]1c1ccc(-c2ccc(C#N)s2)cc1 [PF 4778574]			1.8	Percentage of cell with nuclear Arc immunostaining above 2σ threshold: 35.9%
CC[C@H](C)[C@H](NC(=O)[C@H](CO)NC(=O)[C@@H](NC(=O)[C@@H]1CCCN1C(=O)[C@H](C)NC(=O)[C@@H](N)CC(N)=O)C(C)C)C(=O)N1CCC[C@H]1C(=O)N[C@@H](CCC(N)=O)C(=O)O [AL-108]	8.6			Fold-change — Normalized to DMSO control (BDNF) [2]: -2.3 fold
CNC(=O)[C@@H](Cc1ccccc1)N(C)C(=O)[C@@H](Cc1ccc2ccccc2c1)N(C)C(=O)/C=C/CC(C)(C)N [Tabimorelin]	7.1			
O=C(CCCN1CCC2(CC1)C(=O)NCN2c1ccccc1)c1ccc(F)cc1 [Spiperone]		23.6	1.2	
O=C(NCCN1CCOCC1)c1ccc(Cl)cc1 [Moclobemide]	8.9			

Compound	Percentage of cell with nuclear Arc immunostaining above 2σ threshold [1] [%]	Percentage of cell with nuclear Arc immunostaining above 2σ threshold [3] [%]	Fold-change — Normalized to DMSO control (BDNF) [4] [fold]	further results
C[S+](CC[C@H](N)C(=O)[O-])C[C@H]1O[C@@H](n2cnc3c(N)ncnc32)[C@H](O)[C@@H]1O (some centres unmarked) [S-Adenosylmethionine]		12.8		
C[N+]12CCC(CC1)C(OC(=O)C(O)(c1ccccc1)c1ccccc1)C2 (centres unmarked) [Clidinium bromide]		24.4	1.2	
CC1Nc2ccc(Cl)cc2S(=O)(=O)N1 (centres unmarked) [IDRA-21]		12.2	-1.6	
Clc1ccc2nsnc2c1NC1=NCCN1 [Tizanidine]		35.8	1.8	
Cc1ccc2c(c1)c1c3n2CCNC3CCC1 (centres unmarked) [Pirlindole]		15.3		
CC(C)C[C@H](CN)CC(=O)O [Pregabalin]				Percentage of cell with nuclear Arc immunostaining above 2σ threshold: 8.5%
CN[C@H]1CC[C@@H](c2ccc(Cl)c(Cl)c2)c2ccccc21 [Sertraline]	0.0			
C[C@@H]1C(=O)O[C@H]2C[C@@]34[C@H]5C[C@@H](C(C)(C)C)[C@]36[C@@H](OC(=O)[C@@H]6O)O[C@@]4(C(=O)O5)[C@]21O [Ginkgolide A]		19.3		
COc1ccc2c3c([nH]c2c1)C(C)=NCC3 [Harmaline]			1.5	Percentage of cell with nuclear Arc immunostaining above 2σ threshold: 28.8%
CCOC(=O)c1ncn2c1CN(C)C(=O)c1cc(F)ccc1-2 [Flumazenil]		32.1	1.6	
CN1CCc2c(c3ccccc3n2Cc2ccc(C(=O)NO)cc2)C1 [Tubastatin A]		21.3	1.1	
Nc1cccc(-c2cc3c(Oc4cccc(O)c4)ncnc3[nH]2)c1 [TWS119]		33.9	1.7	
CCc1c(C)[nH]c2c1C(=O)C(CN1CCOCC1)CC2 (centres unmarked) [Molindone]		36.4	1.9	
CCCC(CCC)C(=O)O [Valproate]	8.4			
O=c1c(-c2ccc(O)cc2)coc2cc(O)ccc12 [Daidzein]		40.8	2.1	
Dihydroergotoxine mesylate		24.3	1.2	
O=C(O)C1CCCNC1 (centres unmarked) [Nipecotic acid]			1.4	Percentage of cell with nuclear Arc immunostaining above 2σ threshold: 26.3%
C[S+]([O-])CCCCN=C=S (centres unmarked) [Sulforaphane]		18.2		
CN1CCN(CCCN2c3ccccc3Sc3ccc(C(F)(F)F)cc32)CC1 [Trifluoperazine]	0.0			
